Test results reported in patent US20240384268A1, “Oligonucleotides” (Hudson Institute of Medical Research, priority 2021, published 2024).
In the oligonucleotide strings, read from the 5' end, every base follows the letter of its sugar. An asterisk marks phosphorothioate; unmarked linkages are phosphodiester. Other units and linkages are bracketed, terminal groups are in braces. A string of capitals states the bases alone. d = 2'-deoxy (DNA); m = 2'-O-methyl

Biological target: T1, TLR8 (Homo sapiens, UniProt Q9NR97)
T1 sequence (Q9NR97 27-1041): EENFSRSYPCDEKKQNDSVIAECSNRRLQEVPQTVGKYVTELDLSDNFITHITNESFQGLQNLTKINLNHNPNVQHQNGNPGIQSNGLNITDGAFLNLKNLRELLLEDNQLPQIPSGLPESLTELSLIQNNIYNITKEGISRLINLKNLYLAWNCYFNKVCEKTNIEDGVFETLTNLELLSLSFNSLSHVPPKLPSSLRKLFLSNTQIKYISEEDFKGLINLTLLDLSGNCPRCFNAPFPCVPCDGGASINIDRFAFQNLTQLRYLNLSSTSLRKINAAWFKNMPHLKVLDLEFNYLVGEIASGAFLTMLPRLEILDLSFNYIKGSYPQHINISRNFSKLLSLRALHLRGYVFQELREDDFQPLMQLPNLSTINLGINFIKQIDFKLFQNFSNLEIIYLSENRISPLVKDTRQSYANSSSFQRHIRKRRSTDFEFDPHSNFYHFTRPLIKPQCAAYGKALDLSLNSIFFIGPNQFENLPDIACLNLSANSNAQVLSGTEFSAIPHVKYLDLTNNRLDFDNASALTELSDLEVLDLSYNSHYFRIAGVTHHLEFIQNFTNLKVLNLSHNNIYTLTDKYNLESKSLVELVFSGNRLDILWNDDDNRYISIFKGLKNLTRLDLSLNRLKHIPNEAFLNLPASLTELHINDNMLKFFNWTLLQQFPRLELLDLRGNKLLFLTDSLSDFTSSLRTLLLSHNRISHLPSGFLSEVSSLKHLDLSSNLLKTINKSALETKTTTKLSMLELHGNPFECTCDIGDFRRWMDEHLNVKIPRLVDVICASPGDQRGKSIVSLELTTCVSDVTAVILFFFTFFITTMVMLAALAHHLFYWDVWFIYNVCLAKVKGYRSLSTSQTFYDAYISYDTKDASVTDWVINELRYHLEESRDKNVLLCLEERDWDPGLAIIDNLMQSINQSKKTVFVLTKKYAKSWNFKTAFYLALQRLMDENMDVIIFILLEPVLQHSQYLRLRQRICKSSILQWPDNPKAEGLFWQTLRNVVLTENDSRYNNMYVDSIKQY
Experiment: HEK-TLR8 NF-κB-luciferase reporter, R848 or Motolimod stimulation (potentiation or inhibition)
Format: cell-based
Design: expressed in transfected cells; host or cells: 293XLhTLR8 (HEK293)
Conditions: for TLR8 100 nM (averaged NF-κB-Luciferase level relative to R848 condition, fold increase): ASO 100 nM; for TLR8 100 nM (averaged NF-κB-Luciferase level relative to R848 condition, fold increase) / TLR8 500 nM (averaged NF-κB-Luciferase level relative to R848 condition, fold increase): relative to R848 only; for TLR8 500 nM (averaged NF-κB-Luciferase level relative to R848 condition, fold increase): ASO 500 nM; for TLR8-500 nM: averaged NF-κB-Luciferase relative to R848: 500 nM ASO, fold increase relative to R848 without ASO (Alharbi et al., 2020)

Substance	TLR8 100 nM (averaged NF-κB-Luciferase level relative to R848 condition, fold increase)	TLR8 500 nM (averaged NF-κB-Luciferase level relative to R848 condition, fold increase)	TLR8-500 nM: averaged NF-κB-Luciferase relative to R848 (HEK-TLR8)	TLR8 potentiation of R848 sensing, 20-mer ASOs (in words) (HEK-TLR8, 500 nM ASO ~30 min, R848 overnight)
TACTTTCCGAGGTGTC (antisense; LNA-modified, pattern not given here) [CAMSAP1-1739 LNA KL]	0.417	1.585	–	–
TCCACAATCAAGACAT (antisense; LNA-modified, pattern not given here) [HPRT LNA-551 KL]	0.474	0.893	–	–
TCCATACCCAAGGCAT (antisense; LNA-modified, pattern not given here) [CTNN2B-2446 LNA V1]	0.595	1.334	–	–
TCCGCCCAAAGGGAAC (antisense; LNA-modified, pattern not given here) [HPRT LNA-1027 KL]	0.541	0.725	–	–
TCCTTGCACGTGGCTT (antisense; LNA-modified, pattern not given here) [EGFR-1014 LNA V1]	0.491	0.601	–	–
TCGTGGGGTCCTTTTC (antisense; LNA-modified, pattern not given here) [HPRT LNA-660 V1]	0.778	2.966	–	–
TCTTCATCGGCCCTGC (antisense; LNA-modified, pattern not given here) [CAMSAP1-2112 LNA V1]	0.595	1.393	–	–
TCTTGGCTTCGTGGAG (antisense; LNA-modified, pattern not given here) [MB21D1-521 LNA V1]	0.541	0.197	–	–
TGACAAAGATTCACTG (antisense; LNA-modified, pattern not given here) [HPRT LNA-1353 KL]	0.633	1.756	–	–
TGACTGTCTTGAGGGT (antisense; LNA-modified, pattern not given here) [MB21D1-1483 LNA KL]	0.973	3.210	–	–
TGCTCCTCGGTCTCCC (antisense; LNA-modified, pattern not given here) [CAMSAP1-1850 LNA V1]	1.097	4.771	–	–
TGGTCCACAACCCCTT (antisense; LNA-modified, pattern not given here) [MB21D1-697 LNA V1]	0.559	1.454	–	–
TGGTGGCCACCCATCT (antisense; LNA-modified, pattern not given here) [CTNN2B-2479 LNA V1]	0.464	0.604	–	–
TGTCCTTGCACGTGGC (antisense; LNA-modified, pattern not given here) [EGFR-1016 LNA V1]	0.636	1.158	–	–
TGTCTGGAAGCTTCCT (antisense; LNA-modified, pattern not given here) [CTNN2B-808 LNA V1]	0.600	0.871	–	–
TTCAGGCGCTGCCTTG (antisense; LNA-modified, pattern not given here) [CAMSAP1-2709 LNA V1]	0.479	0.764	–	–
mA*mA*mA*mG*mC*A*G*T*C*T*C*C*A*T*G*mU*mC*mC*mC*mA (mA*mA*mA*mG*mC*dA*dG*dT*dC*dT*dC*dC*dA*dT*dG*mU*mC*mC*mC*mA; antisense) [[CDKN2B-AS1]2237]	–	–	3.38 fold	–
mA*mA*mG*mC*mA*G*T*C*T*C*C*A*T*G*T*mC*mC*mC*mA*mG (mA*mA*mG*mC*mA*dG*dT*dC*dT*dC*dC*dA*dT*dG*dT*mC*mC*mC*mA*mG; antisense) [[CDKN2B-AS1]2236]	–	–	2.62 fold	–
mA*mG*mC*mA*mG*T*C*T*C*C*A*T*G*T*C*mC*mC*mA*mG*mG (AGCAGTCTCCATGTCCCAGG; antisense; sugars from the 5' end m5 d10 m5, all phosphorothioate, methylation of C not given here) [[CDKN2B-AS1]2235]	–	–	4.93 fold	–
mA*mG*mU*mC*mU*C*C*A*T*G*T*C*C*C*A*mG*mG*mC*mC*mU (mA*mG*mU*mC*mU*dC*dC*dA*dT*dG*dT*dC*dC*dC*dA*mG*mG*mC*mC*mU; antisense) [[CDKN2B-AS1]2232]	–	–	2.28 fold	–
mA*mG*mU*mG*mG*C*A*C*A*T*A*C*C*A*C*mA*mC*mC*mC*mU (AGUGGCACATACCACACCCU; antisense; sugars from the 5' end m5 d10 m5, all phosphorothioate, methylation of C not given here) [[CDKN2B-AS1]495]	–	–	4.48 fold	–
mA*mU*mU*mU*mC*C*A*C*A*T*G*C*C*C*A*mG*mU*mG*mU*mU (AUUUCCACATGCCCAGUGUU; antisense; sugars from the 5' end m5 d10 m5, all phosphorothioate, methylation of C not given here) [[CDKN2B-AS1]626]	–	–	4.09 fold	–
mC*mA*mG*mU*mC*T*C*C*A*T*G*T*C*C*C*mA*mG*mG*mC*mC (mC*mA*mG*mU*mC*dT*dC*dC*dA*dT*dG*dT*dC*dC*dC*mA*mG*mG*mC*mC; antisense) [[CDKN2B-AS1]2233]	–	–	3.81 fold	–
mC*mA*mG*mU*mG*T*T*T*T*T*A*A*T*T*T*mU*mG*mU*mA*mG (mC*mA*mG*mU*mG*dT*dT*dT*dT*dT*dA*dA*dT*dT*dT*mU*mG*mU*mA*mG; antisense) [[CDKN2B-AS1]613]	–	–	6.73 fold	–
mC*mU*mU*mG*mU*G*A*A*A*A*G*A*T*T*A*mU*mC*mU*mU*mC (mC*mU*mU*mG*mU*dG*dA*dA*dA*dA*dG*dA*dT*dT*dA*mU*mC*mU*mU*mC) [[CDKN2B-AS1]2139]	–	–	6.02 fold	–
mG*mC*mA*mG*mU*C*T*C*C*A*T*G*T*C*C*mC*mA*mG*mG*mC (GCAGUCTCCATGTCCCAGGC; antisense; sugars from the 5' end m5 d10 m5, all phosphorothioate, methylation of C not given here) [[CDKN2B-AS1]2234]	–	–	2.25 fold	weak potentiator of TLR8
mG*mU*mC*mU*mC*C*A*T*G*T*C*C*C*A*G*mG*mC*mC*mU*mC (mG*mU*mC*mU*mC*dC*dA*dT*dG*dT*dC*dC*dC*dA*dG*mG*mC*mC*mU*mC) [[CDKN2B;AS1]2231]	–	–	1.25 fold	–
